Molecules are shown by their SMILES. Entries after “also recorded” stand apart in the source; their conditions may differ. Like-named read-outs stand apart in the source and are kept apart here.

The test system of assay [1] is four leukemic cell lines (HL-60, K-562, myc-K562, Molt-4). Put plainly: Growth inhibition of leukemic cell lines. The conditions noted are these: Homo sapiens; leukemic cell lines, range. It counts as cell-based, human.
Another assay relates to neuroblastoma cells. The conditions noted are these: two contradicting studies; cited from earlier work.
Assay [2] deals with cultured human fibroblasts. As to conditions: cited from earlier work.
The subject of a further assay is myc-K562. The assay can be described thus: Growth inhibition of leukemic cells (Table 12). In kind it is cell-based. As to conditions: Homo sapiens.
Assay [3] has as its system RI and RII cAMP receptor proteins, LS-174T. Put plainly: Photoaffinity labelling of cAMP receptor proteins (Table 10, FIG. 6). It counts as cell-based, human. The conditions noted are these: 3 days, 8-Cl and N^6-benzyl 10 μM, dibutyryl 1 mM; for relative level of RI / relative level of RII: control RI = 1.0 O.D. The protocol: (§1) Photoactivated incorporation of 8-N3 [^32 P] was performed as described below.
(§2) M is marker proteins of known molecular weight.
(§3) Each lane contained 50 micrograms protein for SDS-PAGE.
(§4) The incubations were carried out at 23° C. for 60 minutes in 96-well immunoplates. The reaction mixtures were then irradiated for 30 seconds at 254 nm, placing a Mineralite UVS-11 hand lamp directly onto the plate. The samples were mixed with 25 microliters of 3× sample buffer (3% SDS, 15% beta-mercaptoethanol, 30 mM Tris, 30% glycerol, 1% bromophenol blue saturated solution), boiled for 3 minutes, and centrifuged at 700 × g for five minutes. The samples containing 10-30 micrograms of protein were subjected to 0.05% SDS-12% PAGE. The gels were fixed, dried, and exposed to X-ray films overnight. The protein concentrations were determined by the method of Lowry et al., J. Biol. Chem. 193: 265-275, 1951, with bovine serum albumin as standard.
(§5) The levels of the receptor proteins are expressed relative to the RI level in the untreated control cells of MDA-MB-231 and LS-174T which are each set equal to 1.0 O.D.; the scale was expanded to differentiate the lower intensity bands.

Assay [4] concerns RI and RII cAMP receptor proteins, MDA-MB-231. Described as above. It counts as cell-based, human. As to conditions: 3 days, 8-Cl and N^6-benzyl 10 μM, dibutyryl 1 mM; for relative level of RI / relative level of RII: control RI = 1.0 O.D. The protocol:
as §1, §2, §3, §4, §5

The subject of assay [5] is breast and colon cancer lines (MCF-7, T-47D, ZR-75-1, MCF-7ras, MDA-MB-231, BT-20, HBL-100, LS-174T, WiDr, HT-29). Put plainly: Growth inhibition of breast and colon cancer lines (FIG. 1). It counts as cell-based, human.
In assay [6] the target is T1, RI, regulatory subunit of cAMP-dependent protein kinase type I (Oryctolagus cuniculus, UniProt G1TDN4).
T1 construct: from tissue
T1 sequence (G1TDN4 1-381): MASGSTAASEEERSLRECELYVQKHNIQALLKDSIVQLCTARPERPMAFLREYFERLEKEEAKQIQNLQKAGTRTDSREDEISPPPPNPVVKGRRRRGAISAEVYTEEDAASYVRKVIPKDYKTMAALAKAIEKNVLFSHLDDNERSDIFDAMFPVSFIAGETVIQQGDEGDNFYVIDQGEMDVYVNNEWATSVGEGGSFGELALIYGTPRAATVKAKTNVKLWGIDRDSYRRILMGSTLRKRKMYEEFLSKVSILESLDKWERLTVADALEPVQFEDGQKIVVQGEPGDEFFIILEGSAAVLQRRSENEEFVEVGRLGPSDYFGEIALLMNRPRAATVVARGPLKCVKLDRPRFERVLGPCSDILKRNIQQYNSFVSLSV
As to conditions: cited from earlier work.

The test system of assay [7] is RIα and RIIβ isoforms of the cAMP receptor protein; protein kinase type I and II. The conditions noted are these: cited from earlier work.
For another assay, the system named is MCF-7. Put plainly: Cell cycle analysis by flow cytometry (Table 3). It counts as cell-based, human. As to conditions: 10 μM; 3 days. The protocol: DNA histograms were generated on FACS II by using the DNA intercalating dye propidium iodide as described by Braylan et al. in Cytometry 2: 337-343, 1982. The percentage of cells in each cycle phase was calculated by using a PDP-11/34 computer and software as described by Neckers et al., Mol. Cell. Biol. 6: 4244-4250, 1986.
Breast (MCF-7, MDA-MB-231) and colon (LS-174T) cancer cells in log
phase (untreated control) and 3 days after treatment with 8-C1-cAMP
(10 μM), N^6 -benzyl-cAMP (35 μM), and 8-Cl-adenosine (5
were analyzed for DNA content by flow cytometric analysis as described
below. Similar results were obtained with other breast and colon cancer

Assay [8] concerns the target T2, Protein kinase type II (cAKII) (Bos taurus, UniProt P00515).
T2 construct: prepared from rabbit skeletal muscle and bovine heart; from tissue; host or cells: bovine heart
The assay can be described thus: Protein kinase activation (Table 15). It counts as biochemical, bovine (heart). As to conditions: half-maximum activation; U. M.: unmeasurable. The protocol:
ATP to Kemptide as described by Ogreid et al., Eur. J. Biochem. 150: 219-227 (1985).
Protein kinases types I (cAKI) and II (cAKII) were
prepared from rabbit skeletal muscle and bovine heart,
respectively, as described in D.o slashed.skeland et al. (J. Biol.
of the protein kinase in Ogreid et al. (Eur. J. Biochem.

Assay [9] has as its system HL-60 human leukemia cells. Put plainly: Growth inhibition of HL-60 leukemia cells (Example 3, Table 16). In kind it is cell-based. The conditions noted are these: for IC50: Homo sapiens. An outline of the steps: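 HL-60 cells were grown in suspension in RPMI 1640 with 10% heat-inactivated FBS, starting at 1 × 10^5 cells/dish. Cells were counted on a Coulter Counter after 3 or 6 days of exposure. IC50 values were read from dose-response data and averaged over two or more separate experiments.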

For the next assay, the system named is L1210 leukemia. The assay can be described thus: Life span of L1210-inoculated BDF1 mice (Table 7).
Setting [10] is: no test described at this place.

T2 sequence (P00515 2-401 limits assumed): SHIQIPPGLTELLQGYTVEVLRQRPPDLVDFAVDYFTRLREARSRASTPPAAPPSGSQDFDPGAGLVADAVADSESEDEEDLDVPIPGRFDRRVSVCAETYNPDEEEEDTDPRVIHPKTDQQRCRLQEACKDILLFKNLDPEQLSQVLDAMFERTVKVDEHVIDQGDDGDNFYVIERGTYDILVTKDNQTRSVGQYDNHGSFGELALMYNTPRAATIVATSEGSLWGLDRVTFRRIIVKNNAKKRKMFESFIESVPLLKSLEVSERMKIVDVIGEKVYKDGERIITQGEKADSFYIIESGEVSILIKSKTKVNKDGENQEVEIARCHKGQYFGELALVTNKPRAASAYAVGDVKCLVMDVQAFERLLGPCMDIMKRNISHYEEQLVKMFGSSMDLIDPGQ

Usually IC50 stands for the concentration at which inhibition is half-maximal. One may read the inhibition as the percentage by which the read-out fell short of the control. Consider `CCCC(=O)Nc1ncnc2c1ncn2[C@@H]1O[C@@H]2COP(=O)(O)O[C@H]2[C@H]1OC(=O)CCC` [DBcAMP, N^6, O^2' -dibutyryl-cAMP, reference compound], for which the IC50 in assay [1] was 500 to 1000 µM; in the assay with myc-K562, 1000 µM. In the assay on neuroblastoma cells, the “tumorigenicity” value is reported as “decreased; also recorded: unaltered”. Besides, the “DNA synthesis” value in assay [2] (added during first eight hours after serum addition) was “not delayed”; in [2] (added more than eight hours after serum addition) it was “inhibitory”. For the same compound, the RII/RI is listed as 0.19 in assay [3] and 0.07 in assay [4]. For the same compound, the “relative level of RI” value in [3] came out at 0.80 ± 0.10; in assay [4] it was 1.0 ± 0.1. Further, the “relative level of RII” value in assay [3] came to 0.15 ± 0.02; in [4] it was 0.07 ± 0.01. In addition, in assay [5] (Homo sapiens, 1 mM), the inhibition at 1000 µM came out at 15%.

Take `Nc1ncnc2c1nc(Cl)n2[C@@H]1O[C@@H]2COP(=O)(O)O[C@H]2[C@H]1O` [8-Cl-cAMP, 8-chloro-adenosine 3': 5'-monophosphate]: the IC50 in [1] lay in the range of 5 to 20 µM. Besides, the “relative affinity Ki (cAMP)/Ki (analogue), RI Site A” value in [6] (Site A (Site 2), literature) is 2.71. Also, in assay [6] (Site B (Site 1), literature), the “relative affinity Ki (cAMP)/Ki (analogue), RI Site B” value is given as 2.0. Further, in assay [6], the “site selectivity of binding to RI” value was “binds to site 2 of the RI receptor”. For the same compound, in assay [7] (literature), the “effect on protein kinase isozyme type I” value is listed as “drastically downregulates type I protein kinase” and the “effect on protein kinase isozyme type II” value is recorded as “upregulating type II protein kinase in its holoenzyme form”. In addition, in assay [7] (setting [10]), the “effect on RIIβ isoform” value is on record as “upregulates the RII β, isoform” and the “effect on RIα isoform” value was “downregulates the RIα isoform”. Also, 20 µM corresponded to half-maximal inhibition in the assay on myc-K562 (IC50). For the same compound, in the assay on MCF-7, the “% Cell Population in G1” value is on record as 53%, the “% Cell Population in G2M” value was 25%, the “% Cell Population in S” value is reported as 22% and the “cell cycle phase distribution” value is given as “not appreciably different”. In addition, in [3], the RII/RI is 1.25, the “relative level of RI” value came out at 0.20 ± 0.02 and the “relative level of RII” value was found to be 0.25 ± 0.02. For the same compound, in [4], the RII/RI came to 0.60, the “relative level of RI” value turned out to be 0.25 ± 0.03 and the “relative level of RII” value was determined as 0.15 ± 0.01. In assay [8], the “Activation Constant (Ka), cAKII” value is on record as 1.0 × 10^-7. Moreover, in [9] (HL-60), the “growth inhibitory potency” value is “potent growth inhibitor of HL-60 cells”. Further, in [9] (HL-60, 72 h, read-out: Growth inhibition (IC50), Day 3), the IC50 is 5 µM. Moreover, the half-maximal inhibitory concentration (IC50) in assay [9] (HL-60, 144 h, read-out: Growth inhibition (IC50), Day 6) was found to be 0.4 µM. Moreover, the “growth inhibition of cancer lines” value in assay [5] (densitometry text) is listed as 45-70%. Further, in the assay on L1210 leukemia (104 mg/kg bolus, seven consecutive days), the “antitumor effect” value was “no antitumor effect”. Besides, the “increase in mean life span” value in the assay on L1210 leukemia (constant infusion 104 mg/kg/day, five days) is listed as 37%.

The values are drawn from patent publication US5843916A, “Cyclic amp analogues, individually and in pairs, to inhibit neoplastic cell growth” (priority 1994, dated 1998).
